Measurements: US6630466B2, “Medicament compositions containing anticholinergically-effective compounds and salmeterol” (priority 1999, dated 2003)
Values joined by “and” are separate entries in the source; they are usually repeats but may differ in a detail not shown here. Equal entries are not always repeated. Structures can show the parent of a compound that is named as a salt.

Experiments:
[1] = test system: bronchial resistance of narcotized dogs; assay: Bronchospasmolytic effect: inhibition of ACh-induced increase of pulmonary resistance in narcotized dogs after inhalative application via […]; format: in vivo, dog; conditions: single substances 3 and 10 μg, combination 3 μg + 3 μg
Description: (§1) 18 mongrel dogs with a body weight of 27 to 32 kg. Kept in individual or communal cages, pelleted standard food, last fed approximately 15 hours before the start of the tests, drinking water freely available.
(§2) After pre-medication with 2 mg/kg morphine hydrochloride i.m., 30 mg/kg pentobarbital-sodium (NEMBUTAL®) is slowly injected intravenously. The animals are relaxed with 1.0 mg/kg i.v. suxamethonium.
After intubation via a servo ventilator 900C (Siemens), the animals are ventilated with ambient air and oxygen (4:1), frequency 15/min., breath volume 6 to 8 L/min. For registration of the breathing mechanics, breath flow is determined by means of a pressurizing pipe (flesh no. 1), installed directly before the orotracheal tube, of a differential pressure recorder and amplifier DCB-4C. A catheter is placed in the trachea and a second (balloon) catheter is placed in the lung section of the esophagus. Both are connected with a differential pressure recorder and amplifier for determination of the transpulmonary pressure. A breath mechanics computer (IFD-Mühlheim) determines the pulmonary resistance (R) from the registered pressure values. From this, a computer program VAS-1 LA (IFD-Mühlheim) calculates: [formula] […]

[2] = test system: Heart Frequency of Narcotized Dogs; assay: Heart frequency of narcotized dogs after inhalative application via RESPIMAT (ECG, cardiotachometer)
Description: as §1, §2
Registration of heart frequency is via ECG (extremity derivative II) and cardiotachometer.
After an equilibration period of 30 minutes, short-term bronchospasms are generated by i.v. injection of 10 μg/kg acetylcholine chloride—this is repeated 2-3× within a 10-minute period. […] Application of the combinations takes place with the individual combinations with an interval of approximately 1 minute. With the BINEB system, the triggering mechanism takes place at the end of the expiration phase and the atomized solution is pressed into the tracheo-bronchial tree in the following inspiration phase of the breath pump.

[3] = 3 μg inhalative, 1 min after application, individual dog
[4] = 3 μg inhalative, 5 min after application, individual dog
[5] = 3 μg inhalative, 5 min after application, mean value, n = 6
[6] = 3 μg inhalative, 10 min after application, individual dog
[7] = 3 μg inhalative, 20 min after application, individual dog
[8] = 3 μg inhalative, 30 min after application, individual dog
[9] = 3 μg inhalative, 60 min after application, individual dog
[10] = 3 μg inhalative, 120 min after application, individual dog
[11] = 3 μg inhalative, 180 min after application, individual dog
[12] = 3 μg inhalative, 180 min after application, mean value, n = 6
[13] = 10 μg inhalative, 1 min after application, individual dog
[14] = 10 μg inhalative, 5 min after application, individual dog
[15] = 10 μg inhalative, 5 min after application, mean value, n = 6
[16] = 10 μg inhalative, 10 min after application, individual dog
[17] = 10 μg inhalative, 10 min after application, mean value, n = 6
[18] = 10 μg inhalative, 20 min after application, individual dog
[19] = 10 μg inhalative, 20 min after application, mean value, n = 6
[20] = 10 μg inhalative, 30 min after application, individual dog
[21] = 10 μg inhalative, 30 min after application, mean value, n = 6
[22] = 10 μg inhalative, 60 min after application, individual dog
[23] = 10 μg inhalative, 60 min after application, mean value, n = 6
[24] = 10 μg inhalative, 120 min after application, individual dog
[25] = 10 μg inhalative, 180 min after application, individual dog
[26] = 10 μg inhalative, 180 min after application, mean value, n = 6

## COc1ccc(CC(C)NCC(O)c2ccc(O)c(NC=O)c2)cc1 (centres unmarked) [formoterol fumarate, formoterol]
[1]
  onset of maximum bronchospasmolytic effect: rapidly occurs
[1]; test duration 180 minutes
  effective duration of bronchospasmolytic effect: comparatively short
[2]; [3]
  Heart frequency (beats/min.): 67.00 beats/min. and 91.00 beats/min. and 102.00 beats/min.
  Heart frequency, % alteration: 7.94% and −7.52% and 11.67% and 13.04% and 21.13% and 15.68%
[2]; 3 μg inhalative, 1 min after application, mean value, n = 6
  Heart frequency (beats/min.): 103.17 beats/min.
[2]; [4]
  Heart frequency (beats/min.): 140.00 beats/min. and 64.00 beats/min. and 95.00 beats/min.
  Heart frequency, % alteration: 11.11% and 5.26% and 6.67% and 18.01% and 28.64% and 25.41%
[2]; [5]
  Heart frequency (beats/min.): 109.50 beats/min.
  Heart frequency, % alteration: 15.85%
[2]; [6]
  Heart frequency (beats/min.): 100.00 beats/min. and 110.00 beats/min.
  Heart frequency, % alteration: 36.51% and 21.80% and 66.67% and 36.65% and 29.58%
[2]; 3 μg inhalative, 10 min after application, mean value, n = 6
  Heart frequency, % alteration: 37.72%
[2]; [7]
  Heart frequency (beats/min.): 165.00 beats/min. and 95.00 beats/min. and 100.00 beats/min. and 141.00 beats/min.
  Heart frequency, % alteration: 41.80% and 24.06% and 54.33% and 24.44% and 32.39% and 36.22%
[2]; 3 μg inhalative, 20 min after application, mean value, n = 6
  Heart frequency, % alteration: 36.17%
[2]; [8]
  Heart frequency (beats/min.): 159.00 beats/min. and 89.00 beats/min. and 95.00 beats/min.
  Heart frequency, % alteration: 46.03% and 48.33% and 18.01% and 38.38%
[2]; 3 μg inhalative, 30 min after application, mean value, n = 6
  Heart frequency, % alteration: 34.41%
[2]; [9]
  Heart frequency (beats/min.): 86.00 beats/min. and 94.00 beats/min. and 140.00 beats/min.
  Heart frequency, % alteration: 41.80% and 15.04% and 43.33% and 31.46% and 38.38%
[2]; 3 μg inhalative, 60 min after application, mean value, n = 6
  Heart frequency, % alteration: 31.13%
[2]; [10]
  Heart frequency (beats/min.): 88.00 beats/min. and 94.00 beats/min. and 130.00 beats/min. and 120.00 beats/min.
  Heart frequency, % alteration: 21.69% and 46.67% and 29.73%
[2]; [11]
  Heart frequency (beats/min.): 140.00 beats/min. and 86.00 beats/min. and 96.00 beats/min. and 130.00 beats/min. and 120.00 beats/min.
  Heart frequency, % alteration: 14.29% and 5.26% and 43.33% and 19.25% and 29.73%
[2]; [12]
  Heart frequency (beats/min.): 113.33 beats/min.
  Heart frequency, % alteration: 22.32%
[2]; [13]
  Heart frequency (beats/min.): 96.00 beats/min.
  Heart frequency, % alteration: 22.75% and 9.02% and 81.67% and 19.25% and −1.41% and 31.89%
[2]; 10 μg inhalative, 1 min after application, mean value, n = 6
  Heart frequency, % alteration: 27.20%
[2]; [14]
  Heart frequency (beats/min.): 136.00 beats/min. and 120.00 beats/min. (2×)
  Heart frequency, % alteration: 61.90% and 2.26% and 143.33% and 49.07% and 12.68% and 31.89%
[2]; [15]
  Heart frequency (beats/min.): 132.83 beats/min.
  Heart frequency, % alteration: 50.19%
[2]; [16]
  Heart frequency (beats/min.): 191.00 beats/min. and 152.00 beats/min. and 144.00 beats/min. and 160.00 beats/min. and 130.00 beats/min. and 155.00 beats/min.
  Heart frequency, % alteration: 64.02% and 43.61% and 153.33% and 78.88% and 50.23% and 40.54%
[2]; [17]
  Heart frequency (beats/min.): 155.33 beats/min.
  Heart frequency, % alteration: 71.77%
[2]; [18]
  Heart frequency (beats/min.): 204.00 beats/min. and 156.00 beats/min. and 135.00 beats/min. and 157.00 beats/min.
  Heart frequency, % alteration: 66.14% and 53.38% and 155.00% and 93.79% and 48.36% and 45.95%
[2]; [19]
  Heart frequency (beats/min.): 160.50 beats/min.
  Heart frequency, % alteration: 77.10%
[2]; [20]
  Heart frequency (beats/min.): 207.00 beats/min. and 150.00 beats/min. (2×) and 156.00 beats/min. and 140.00 beats/min. and 159.00 beats/min.
  Heart frequency, % alteration: 68.25% and 55.64% and 150.00% and 93.79% and 40.85% and 51.35%
[2]; [21]
  Heart frequency (beats/min.): 160.33 beats/min.
  Heart frequency, % alteration: 76.65%
[2]; [22]
  Heart frequency (beats/min.): 210.00 beats/min. and 149.00 beats/min. and 140.00 beats/min. (2×) and 150.00 beats/min. and 163.00 beats/min.
  Heart frequency, % alteration: 72.49% and 57.89% and 148.33% and 73.91% and 40.85% and 51.35%
[2]; [23]
  Heart frequency (beats/min.): 158.67 beats/min.
  Heart frequency, % alteration: 74.14%
[2]; [24]
  Heart frequency (beats/min.): 209.00 beats/min. and 140.00 beats/min. and 135.00 beats/min. and 176.00 beats/min.
  Heart frequency, % alteration: 86.24% and 57.14% and 143.33% and 73.91% and 45.95%
[2]; 10 μg inhalative, 120 min after application, mean value, n = 6
  Heart frequency, % alteration: 73.79%
[2]; [25]
  Heart frequency (beats/min.): 205.00 beats/min. and 141.00 beats/min. and 130.00 beats/min. and 135.00 beats/min. and 152.00 beats/min.
  Heart frequency, % alteration: 60.85% and 54.14% and 135.00% and 61.49% and 45.95%
[2]; [26]
  Heart frequency (beats/min.): 151.33 beats/min.
  Heart frequency, % alteration: 65.59%
[2]; high dosage (10 μg)
  maximum increase of heart frequency: over 90%
[2]; high dosage (10 μg), end of test (180 minutes)
  increase of heart frequency after the end of the test: over 80%
